Source: patent publication US20100179225A1, “POI Prevention” (CYTOKINE PHARMASCIENCES, INC., priority 2008, published 2010)

Experiments:
neutrophils in ME = assay: Neutrophil infiltration into mouse ME (myeloperoxidase staining of whole mounts) after IM; format: in vivo, mice; conditions: for number of neutrophils in ME: 24 hours after IM
Text: The small bowel of the animals was subjected to a standardized, surgical manipulation (IM) as described previously (Kalff J C, Schraut W H, Simmons R L et al. Surgical manipulation of the gut elicits an intestinal muscularis inflammatory response resulting in postsurgical ileus. Ann Surg 1998; 228:652-663; Wehner S, Schwarz N T, Hundsdoerfer R et al. Induction of IL-6 within the rodent intestinal muscularis after intestinal surgical stress. Surgery 2005; 137:436-446). In brief, after anesthesia a midline abdominal incision was made into the peritoneal cavity. The entire small bowel was eventuated and manipulated with standardized moderate intensity using two moist cotton applicators as described previously. After IM, the laparotomy was closed by one layer of continuous suture, except when probe sampling was conducted within 20 minutes after surgery. These animals were held in anesthesia and the abdomen was closed by a clamp and protected with sterile gauze. All other animals recovered rapidly from the bowel manipulation procedure. Control animals exclusively underwent laparotomy without eventration and IM (sham operation).
Animals within examples referring to FIGS. 2-9 were treated 90 minutes before operation with 0 mg/kg (placebo group), or 5 mg/kg bodyweight CNI-1493. In further experiments in rats or mice 0.1, 1.0 or 10 mg/kg CPSI-2364 were administered 90 minutes before surgical procedure via oral route. Oral (p.o.) administration was performed via a gastric tube. CNI-1493 and CPSI-2364 were dissolved in 2.5% mannitol. Placebo and CNI-1493 or CPSI-2364 groups were subdivided in two further groups. One was sham operated (laparotomy without IM) while the other underwent laparotomy followed by IM.
Specimens for histochemical analysis were prepared 24 h after operation and performed on whole mounts of the distal jejunum, as described before in detail (n=5-7 each group) 9. In brief, jejunal segments were opened, immersed in chilled Krebs-Ringer buffer (KRB) and fixed in 100% ethanol for 10 minutes. After washing with KRB, mucosa and submucosa were stripped off and ME whole mounts were used for detection of myeloperoxidase (MPO) positive cells (neutrophils). Thereto, freshly prepared whole mounts were stained with Hanker-Yates reagent as described previously (Wehner S, Schwarz N T, Hundsdoerfer R et al. Induction of IL-6 within the rodent intestinal muscularis after intestinal surgical stress. Surgery 2005; 137:436-446). MPO+-cells were counted under a microscope (TE-2000, Nikon, Duesseldorf, Germany) in 5 randomly chosen areas in each specimen.

[1] = test system: nitric oxide (NO) production in ME; assay: Nitric oxide release from cultured mouse ME (Griess reaction) after IM; format: in vivo, mice
Method: […] Control animals received CNI-1493 (5 mg/kg) intravenously or CPSI-2364 orally (1 mg/kg or 0.1 mg/kg), but were not operated.
After preoperative i.v. or oral drug or placebo administration animals underwent IM. Control animals received CNI-1493 or placebo i.v. or orally but were not operated.
Total ME from small intestine was isolated 24 h after operation as described above and then cut into small pieces and washed for 30 minutes in PBS containing a penicillin/streptomycin (200U/200 μg) mixture. Aliquots of ˜50 mg were incubated in 1 mL of DMEM at 37° C. and 5% CO2 for further 24 hours and tissue culture supernatants were frozen in liquid nitrogen. The muscle tissue was blotted dry, and the exact weight was measured. To quantify the generation of NO from intestinal smooth muscle preparations, nitrite production was measured by the Griess reaction as described previously (Kalff J C, Schraut W H, Billiar T R et al. Role of inducible nitric oxide synthase in postoperative intestinal smooth muscle dysfunction in rodents. Gastroenterology 2000; 118:316-327). In brief, supernatant from the tissue culture was mixed with an equal volume of Griess reagent (0.1% N-(1-napthyl)ethyl-enediamine dihydrochloride and 1% sulfanilamide in 6% phosphoric acid; 1:1) and incubated for 10 minutes. The absorbance at 550 nm was measured with a microplate reader and compared with standard dilutions of sodium nitrite. Total nitrite produced was normalized to 1 g of muscle tissue.

[2] = test system: jejunal circular smooth muscle; assay: In vitro jejunal circular smooth muscle contractility (bethanechol) after IM, mouse; format: in vivo, mice
Method: Jejunal smooth muscle activity was measured as previously described (Kalff J C, Schraut W H, Simmons R L et al. Surgical manipulation of the gut elicits an intestinal muscularis inflammatory response resulting in postsurgical ileus. Ann Surg 1998; 228:652-663). Briefly, after preparation, mucosa-free circular ME strips were equilibrated in KRB perfused organ chambers at 37° C. for 1 hour. One end of each strip was tied to a fixed post and the other attached to an isometric force transducer (ADI, Heidelberg, Germany) connected to the bridge amplifier and powerlab system (ADI). Dose-response curves of muscle contraction were generated by exposing the muscle strips to increasing concentrations of the muscarinic agonist bethanechol (0.1-300 μmol/L) for 10 minutes, followed by a wash-period (KRB) of 10 minutes. The contractile response was analyzed with the ADI Chart© software and the contractions were calculated as grams per square millimeter per second by conversion of the weight and length of the strip to square millimeters of tissue.

mice [3] = assay: In vivo gastrointestinal transit (FITC-dextran geometric center) after IM, mouse
Method: Gastrointestinal transit was measured 23.5 hours postoperatively by evaluating the intestinal location of a fluorochrome labeled dextran (FITC—dextran, 70.000 MW, Molecular Probes, Netherlands) (n=10 each). Thereto, 22 hours after the bowel manipulation, animals were lightly anesthetized and given FITC-dextran (200 μl of 6.25 mg/ml stock solution) via a gastric tube into the stomach. Mice were killed 90 minutes after administration, the entire gastrointestinal tract was divided into 15 segments, opened and FITC-dextran was washed out by PBS. Fluorescence of segment washes was read at 494 nm/521 nm wavelength in fluorescence reader (Tecan, Crailsheim, Germany). The data were expressed as the percentage of activity per segment. Gastrointestinal transit was calculated as the geometric center (GC) of distribution of fluorescence marker using this formula:
GC=Σ(% of total fluorescent signal per segment*segment number)/100.

mice [4] = assay: In vivo colonic transit (glass ball excretion time) after IM, mouse
Method: Colonic transit measurement was performed 24 h hours after operation by inserting a 2 mm glass ball with a metal rod 3 cm into the colon. Before insertion colonic patency was ensured by exclusively inserting the rod 3 cm into the colon. Mice were weakly anesthetized with isofluran for the whole procedure and wake up within 40 seconds after glass ball insertion. Colonic transit time was calculated as the period between insertion and excretion of the ball.

SMILES	number of neutrophils in ME (neutrophils in ME; 5 mg/kg i.p. preoperative)	number of neutrophils in ME (neutrophils in ME; 5 mg/kg i.v. preoperative)	neutrophil infiltration, reduction (neutrophils in ME; intravenous treatment, after IM)	NO production (nitrite release) from ME ([1]; 5 mg/kg i.v. preoperative, ME taken 24 h after IM, cultured 24 h) [µM]	NO production (nitrite release) from ME ([1]; 5 mg/kg i.v., non-operated animals (basal)) [µM]	suppression of bethanechol stimulated muscle contractility after IM ([2]; 5 mg/kg i.v. preoperative, 24 h after IM)	gastrointestinal transit, geometric center (GC) (mice [3]; 5 mg/kg i.p. preoperative, IM)	gastrointestinal transit, geometric center (GC) (mice [3]; 5 mg/kg i.p., sham operated)	gastrointestinal transit, geometric center (GC) (mice [3]; 5 mg/kg i.v. 90 minutes before operation, IM)	gastrointestinal transit, geometric center (GC) (mice [3]; 5 mg/kg i.v., sham operated)	gastrointestinal transit, geometric center (GC) (mice [3]; given immediately before laparotomy and IM (results not shown))	colonic transit time (mice [4]; 5 mg/kg intravenously preoperative, 24 hours after IM) [s]	colonic transit time (mice [4]; unoperated controls of the CNI-1493 group (S-CTL, FIG. 8E)) [s]	neutrophils in ME compared to the placebo IM group (neutrophils in ME; mice, p.o. preoperative, 24 hours after IM (FIG. 11))	nitric oxide and its metabolites in muscularis culture supernatant vs Sham+Placebo ([1]; mice, 10 mg/kg orally 90 minutes or intravenously 60 minutes before operation, IM (FIG. 27))	suppression of bethanechol stimulated muscle contractility after IM ([2]; mice, p.o. preoperative (FIG. 13))	geometric centers of FITC dextran distribution vs Sham+Placebo (mice [3]; mice, 0.1, 1 or 10 mg/kg orally 90 minutes, 6 hours or 16 h before operation, IM (FIG. 25))	gastrointestinal transit (GIT) (mice [3]; mice, p.o. preoperative, IM (FIG. 14))	colonic transit, excretion time of the ball vs Sham+Placebo (mice [4]; mice, 0.1, 1 or 10 mg/kg orally 90 minutes, 6 hours or 16 h before operation, IM (FIG. 26))
C/C(=N\N=C(N)N)c1cc(NC(=O)CCCCCCCCC(=O)Nc2cc(/C(C)=N/N=C(N)N)cc(/C(C)=N/N=C(N)N)c2)cc(/C(C)=N/N=C(N)N)c1.Cl.Cl.Cl.Cl [CNI-1493]	36.1±10.7	52.1±15.5	reduced by only one third	333 ± 198	45.5 ± 52.2	completely abrogated	10.96±1.71	9.81±0.92	8.97±0.60	11.98±0.73	5.48±2.01	166 ± 87	118 ± 68						
C/C(=N\N=C(N)N)c1cc(NC(=O)CCCCCCCCC(=O)Nc2cc(/C(C)=N/N=C(N)N)cc(/C(C)=N/N=C(N)N)c2)cc(/C(C)=N/N=C(N)N)c1.CS(=O)(=O)O.CS(=O)(=O)O.CS(=O)(=O)O.CS(=O)(=O)O [CPSI-2364]														significant reduction of neutrophils	None of the CPSI-2364 treated group differed significantly different from Sham+Placebo group	strongly abrogated	None of the CPSI-2364 treated groups differed significantly from the Sham+Placebo group	normalized GIT	None of the CPSI-2364 treated group differed significantly from Sham+Placebo group
